Source: the Kinase Knowledgebase extract (Sharma et al. 2016)

molecular target: EGFR (UniProt P00533)
Sequence (P00533 whole entry, looked up): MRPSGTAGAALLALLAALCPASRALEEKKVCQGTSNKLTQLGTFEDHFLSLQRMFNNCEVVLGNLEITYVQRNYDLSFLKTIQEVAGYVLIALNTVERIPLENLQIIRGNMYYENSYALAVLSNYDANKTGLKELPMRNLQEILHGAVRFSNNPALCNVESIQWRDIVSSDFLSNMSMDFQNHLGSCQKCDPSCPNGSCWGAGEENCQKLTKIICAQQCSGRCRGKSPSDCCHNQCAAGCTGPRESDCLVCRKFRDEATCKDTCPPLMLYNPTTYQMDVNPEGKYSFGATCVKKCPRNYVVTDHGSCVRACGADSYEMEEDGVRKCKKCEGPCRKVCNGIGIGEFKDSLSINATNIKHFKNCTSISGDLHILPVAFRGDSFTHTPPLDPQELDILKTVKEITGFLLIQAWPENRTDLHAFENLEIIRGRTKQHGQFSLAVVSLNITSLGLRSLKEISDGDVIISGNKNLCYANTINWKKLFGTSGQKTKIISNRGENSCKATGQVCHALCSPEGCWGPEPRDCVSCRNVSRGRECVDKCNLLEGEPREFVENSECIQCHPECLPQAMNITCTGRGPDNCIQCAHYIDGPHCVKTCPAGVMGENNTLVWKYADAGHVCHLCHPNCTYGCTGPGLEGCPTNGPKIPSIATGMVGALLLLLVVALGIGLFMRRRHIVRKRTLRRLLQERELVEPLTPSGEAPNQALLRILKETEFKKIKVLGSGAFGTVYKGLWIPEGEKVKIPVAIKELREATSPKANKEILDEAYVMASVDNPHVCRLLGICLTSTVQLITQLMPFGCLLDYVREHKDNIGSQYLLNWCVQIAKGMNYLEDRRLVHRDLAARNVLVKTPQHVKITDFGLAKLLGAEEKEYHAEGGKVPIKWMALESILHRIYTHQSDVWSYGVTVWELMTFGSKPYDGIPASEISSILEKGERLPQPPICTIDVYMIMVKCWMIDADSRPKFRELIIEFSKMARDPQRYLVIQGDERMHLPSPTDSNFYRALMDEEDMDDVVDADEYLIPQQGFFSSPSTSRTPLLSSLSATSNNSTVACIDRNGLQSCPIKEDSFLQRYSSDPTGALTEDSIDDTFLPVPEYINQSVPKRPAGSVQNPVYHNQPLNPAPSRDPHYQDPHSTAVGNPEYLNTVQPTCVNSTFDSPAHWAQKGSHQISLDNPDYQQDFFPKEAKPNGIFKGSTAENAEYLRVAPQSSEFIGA

| SMILES | IC50 |
| --- | --- |
| CCc1c(NC(=O)O[C@H]2CC[C@@](C)(N)CC2)cn2ncnc(Nc3ccc4c(cnn4Cc4ccccc4)c3)c12 | 1 to 5000 nM |
| CCc1c(NC(=O)OC[C@@H]2COCCN2)cn2ncnc(Nc3ccc4c(cnn4Cc4ccsc4)c3)c12 | 1 to 5000 nM |
| CCc1c(NC(=O)OC[C@@H]2COCCN2)cn2ncnc(Nc3ccc4c(cnn4Cc4cccc(F)c4)c3)c12 | 1 to 5000 nM |
| CCc1c(NC(=O)OC[C@@H]2COCCN2)cn2ncnc(Nc3ccc4c(cnn4Cc4ncco4)c3)c12 | 1 to 5000 nM |
| Cc1c(NC(=O)O[C@H]2CC[C@@](C)(N)CC2)cn2ncnc(Nc3ccc4c(cnn4Cc4cccc(F)c4)c3)c12 | 1 to 5000 nM |
| CCc1c(NC(=O)O[C@H]2CC[C@@H](CN)CC2)cn2ncnc(Nc3ccc4c(cnn4Cc4ccccc4)c3)c12 | 1 to 5000 nM |
| CCc1c(NC(=O)OC[C@@H]2COCCN2)cn2ncnc(Nc3ccc4c(cnn4Cc4cccnc4)c3)c12 | 1 to 5000 nM |
| CCc1c(NC(=O)OC[C@@H]2COCCN2)cn2ncnc(Nc3ccc4c(cnn4Cc4nccs4)c3)c12 | 1 to 5000 nM |
| CCc1c(NC(=O)OC[C@@H]2COCCN2)cn2ncnc(Nc3ccc4c(cnn4Cc4cnccn4)c3)c12 | 1 to 5000 nM |
| Cc1c(NC(=O)OC[C@@H](C)N)cn2ncnc(Nc3ccc4c(cnn4Cc4cccc(F)c4)c3)c12 | 1 to 5000 nM |
| CCc1c(NC(=O)OC[C@@H]2COCCN2)cn2ncnc(Nc3ccc4c(cnn4Cc4cccs4)c3)c12 | 1 to 5000 nM |
| Cc1c(NC(=O)O[C@H]2CCN[C@H](CO)C2)cn2ncnc(Nc3ccc4c(cnn4Cc4cccc(F)c4)c3)c12 | 1 to 5000 nM |
| Cc1c(NC(=O)O[C@H]2CC[C@@H](N)CC2)cn2ncnc(Nc3ccc4c(cnn4Cc4cccc(F)c4)c3)c12 | 1 to 5000 nM |
| Cc1c(NC(=O)OC[C@@H]2COCCN2C(=O)OC(C)(C)C)cn2ncnc(Nc3ccc4c(cnn4Cc4cccc(F)c4)c3)c12 | 1 to 5000 nM |
| Cc1c(NC(=O)OC[C@H](C)N)cn2ncnc(Nc3ccc4c(cnn4Cc4cccc(F)c4)c3)c12 | 1 to 5000 nM |
| Cc1c(NC(=O)O[C@@H]2CCCNC2)cn2ncnc(Nc3ccc4c(cnn4Cc4cccc(F)c4)c3)c12 | 1 to 5000 nM |
| Cc1c(NC(=O)OC[C@H]2COCCN2)cn2ncnc(Nc3ccc4c(cnn4Cc4cccc(F)c4)c3)c12 | 1 to 5000 nM |
| CCc1c(NC(=O)OCCCN2CC[C@H](O)C2)cn2ncnc(Nc3ccc4c(cnn4Cc4ccccc4)c3)c12 | 1 to 5000 nM |
| Cc1c(NC(=O)O[C@H]2CCCNC2)cn2ncnc(Nc3ccc4c(cnn4Cc4cccc(F)c4)c3)c12 | 1 to 5000 nM |
| CCc1c(NC(=O)OCCCN2CC[C@@H](O)C2)cn2ncnc(Nc3ccc4c(cnn4Cc4ccccc4)c3)c12 | 1 to 5000 nM |
| Cc1c(NC(=O)OCC2COCCN2)cn2ncnc(Nc3ccc4c(cnn4Cc4cccc(F)c4)c3)c12 (stereo not given) | 1 to 5000 nM |
| CCc1c(NC(=O)OCCCN2CCC[C@H](O)C2)cn2ncnc(Nc3ccc4c(cnn4Cc4ccccc4)c3)c12 | 1 to 5000 nM |
| Cc1c(NC(=O)OC[C@@H]2COCCN2)cn2ncnc(Nc3ccc4c(cnn4Cc4cccc(F)c4)c3)c12 | 1 to 5000 nM |
| CCc1c(NC(=O)OC[C@@H]2COCCN2)cn2ncnc(Nc3ccc4c(cnn4Cc4ccccn4)c3)c12 | 1 to 5000 nM |
| Cc1c(NC(=O)O[C@@H]2CCN[C@@H](CO)C2)cn2ncnc(Nc3ccc4c(cnn4Cc4cccc(F)c4)c3)c12 | 1 to 5000 nM |
| Cc1c(NC(=O)O[C@H]2CC[C@H](N)CC2)cn2ncnc(Nc3ccc4c(cnn4Cc4cccc(F)c4)c3)c12 | 1 to 5000 nM |
| CCc1c(NC(=O)OC[C@@H]2COCCN2)cn2ncnc(Nc3ccc4c(cnn4Cc4cscn4)c3)c12 | 1 to 5000 nM |

Second part, the molecule after the results:

| IC50 | SMILES |
| --- | --- |
| 1 to 5000 nM | CCc1c(NC(=O)OC[C@@H]2CCCN2)cn2ncnc(Nc3ccc4c(cnn4Cc4ccccc4)c3)c12 |
| 1 to 5000 nM | CCc1c(NC(=O)OC[C@H]2CNCCO2)cn2ncnc(Nc3ccc4c(cnn4Cc4ccccc4)c3)c12 |
| 1 to 5000 nM | CCc1c(NC(=O)O[C@H]2CC[C@H](N)CC2)cn2ncnc(Nc3ccc4c(cnn4Cc4ccccc4)c3)c12 |
| 1 to 5000 nM | CCc1c(NC(=O)OC[C@H]2COCCN2)cn2ncnc(Nc3ccc4c(cnn4Cc4ccccc4)c3)c12 |
| 1 to 5000 nM | CCc1c(NC(=O)O[C@@H]2CCCNC2)cn2ncnc(Nc3ccc4c(cnn4Cc4ccccc4)c3)c12 |
| 1 to 5000 nM | CCc1c(NC(=O)OC[C@@H]2CCN(C)C2)cn2ncnc(Nc3ccc4c(cnn4Cc4ccccc4)c3)c12 |
| 1 to 5000 nM | CCc1c(NC(=O)OC[C@@H]2CCNC2)cn2ncnc(Nc3ccc4c(cnn4Cc4ccccc4)c3)c12 |
| 1 to 5000 nM | CCc1c(NC(=O)O[C@@H]2CCN[C@@H](CO)C2)cn2ncnc(Nc3ccc4c(cnn4Cc4ccccc4)c3)c12 |
| 1 to 5000 nM | CCc1c(NC(=O)O[C@H]2CC[C@@H](N)CC2)cn2ncnc(Nc3ccc4c(cnn4Cc4ccccc4)c3)c12 |
| 1 to 5000 nM | CCc1c(NC(=O)OC2CCN[C@H](CO)C2)cn2ncnc(Nc3ccc4c(cnn4Cc4ccccc4)c3)c12 (stereo not given in full) |
| 1 to 5000 nM | CCc1c(NC(=O)O[C@H]2CCCNC2)cn2ncnc(Nc3ccc4c(cnn4Cc4ccccc4)c3)c12 |
| 1 to 5000 nM | CCc1c(NC(=O)OC[C@H]2CCNC2)cn2ncnc(Nc3ccc4c(cnn4Cc4ccccc4)c3)c12 |
| 1 to 5000 nM | CCc1c(NC(=O)O[C@H]2CC[C@H](CN)CC2)cn2ncnc(Nc3ccc4c(cnn4Cc4ccccc4)c3)c12 |
| 1 to 5000 nM | CCc1c(NC(=O)OC[C@@H]2COCCN2)cn2ncnc(Nc3ccc4c(cnn4Cc4ccccc4)c3)c12 |
| 1 to 5000 nM | CCc1c(NC(=O)OC[C@@H]2CNCCO2)cn2ncnc(Nc3ccc4c(cnn4Cc4ccccc4)c3)c12 |
| 1 to 5000 nM | CCc1c(NC(=O)OC[C@H]2C[C@H](O)CCN2)cn2ncnc(Nc3ccc4c(cnn4Cc4ccccc4)c3)c12 |
| 1 to 5000 nM | CCc1c(NC(=O)OC[C@@H]2CCCN2C)cn2ncnc(Nc3ccc4c(cnn4Cc4ccccc4)c3)c12 |
| 1 to 5000 nM | CCc1c(NC(=O)OC[C@H]2CCCN2)cn2ncnc(Nc3ccc4c(cnn4Cc4ccccc4)c3)c12 |
